Assay results: US20230113539A1, “Traditional Chinese medicine for dispersing lung qi and detoxicating” (priority 2020, published 2023)
Where two headings read alike, the source gives them in different places.

What was measured:
HCoV-229E nucleic acid = assay: Nucleic acid detection (viral load) in lung tissue (RT-PCR), same mouse model; format: in vivo, BALB/c mice
GAS, MTL in mouse serum = assay: Gastrin (GAS) and motilin (MTL) in mouse serum (ELISA), same mouse model; format: in vivo, BALB/c mice
Excerpt: (§1) 90 Balb/c mice are taken, SPF-grade, half male and half female, and the body weight is 10-12 g. They are randomly divided into a normal control group, a 229E infection group, a cold-damp control group, a disease-syndrome combination model group of epidemic viruses attacking lungs in mice (hereinafter referred to as an epidemic virus attacking lung model group), a chloroquine phosphate positive drug group, and an interferon α2b positive drug group, and high, medium and low dosage groups of the traditional Chinese medicine granules of the present invention, there are 10 mice in each group. Except for the normal control group and the 229E infection group, the other mice are continuously placed in an artificial climate box with a relative humidity of 90±3%, no wind, and a temperature of 4±2° C. every day, and are taken out after 4 hours of stimulation for 7 consecutive days.
(§2) Except for the normal control group and the cold-damp control group, the other mice are infected with 100 TCID50HCOV-229E virus droplets nasally at 50 μL/mice after mild anesthesia with ether on the 5-th and 6-th days of cold-damp stimulation. The administration of each administration group starts on the day of the first infection, and each dosage group of the traditional Chinese medicine granules of the present invention and the chloroquine phosphate positive drug group are administered by gavage at 0.2 ml/10 g; the normal control group, the cold-damp control group, the 229E infection group, the epidemic virus attacking lung model group are given with normal saline under the same conditions; the interferon α2b positive drug group is inhaled with the original drug solution by atomization, and each time is 20 min. It is administered once a day for 3 consecutive days. On the 4-th day of the infection, autopsy is performed after being weighed, and the following indicators are observed and detected.
(§3) 2.4.4 Detection of Gastrin (GAS), Motilin (MTL) in Mouse Serum and Inflammatory Factor in Lung Tissue (ELISA Method)
After dissection, mouse […] is placed at a room temperature for 30 min, and centrifuged at 3000×g for 10 min, and a supernatant is absorbed into a new eppendorf (ep) tube and stored at −20° C. During the detection, it is operated according to kit instructions, and a microplate reader detects each index at 450 nm of the absorbance.

[1] = tested on: peripheral blood T lymphocyte subset and B lymphocyte; assay: Flow cytometry of peripheral blood T lymphocyte subset and B lymphocyte proportion, same mouse model; format: in vivo, BALB/c mice
[2] = tested on: human coronavirus (HCoV-229E); format: in vivo
[3] = tested on: inflammatory factors IL-6, IL-10, TNF-α, INF-γ in lung tissue; assay: Inflammatory factor content in lung tissue (ELISA), same mouse model; format: in vivo, BALB/c mice
Excerpt: as §1, §2, §3
Lung tissue homogenate sample: after weighing the lung tissue from the mouse, the mouse lung tissue is collected and stored at […]. After weighing 50 mg of the lung tissue and adding 500 μL of normal saline, the tissue is homogenized with an ultrasonic cell disruptor, and centrifuged at […] at 1000 xg for 10 minutes with a lower-temperature high-speed centrifuge. After the supernatant is absorbed, it is separately packaged, and stored in the −80° C. refrigerator for later use. Repeated freezing and thawing is avoided. During the detection, it is operated according to the kit instructions, and the microplate reader detects each index at 450 nm of the absorbance.

[4] = chloroquine phosphate Id: 0.18 g/kg/d, 2~3 d: 0.09 g/kg/d
[5] = chloroquine phosphate Id: 0.18 g/kg/d, 2~3: 0.09 g/kg/d
[6] = interferon α2b 300 million IU, 20 min

For `CCN(CC)CCCC(C)Nc1ccnc2cc(Cl)ccc12` (centres unmarked) [Chloroquine phosphate], the “Viral load (lung tissue)” value (HCoV-229E nucleic acid; [4]) was 56027.66 ± 31638.92, the “Factor content in serum GAS” value (GAS, MTL in mouse serum; [5]) was 8.75 ± 1.41 pg/mL and the “Factor content in serum MTL” value (GAS, MTL in mouse serum; [5]) was 105.69 ± 16.85 pg/mL. The “CD4+/CD8+ (peripheral blood)” value [1, 4] was 1.65 ± 0.23, the “Percentage of immune cells in peripheral blood B cell” value [1, 4] was 15.72 ± 2.24% and the “Percentage of immune cells in peripheral blood CD4+T cell” value [1, 4] was 32.47 ± 4.65%. The “Percentage of immune cells in peripheral blood CD8+T cell” value [1, 4] was 20.03 ± 3.68 %, the “Inhibition rate % (of lung index)” value ([2]; chloroquine phosphate Id: 0.18 g/kg/d, 2-3: 0.09 g/kg/d) was 9.82% and the “Lung index (Lung weight/100 g body weight)” value ([2]; chloroquine phosphate Id: 0.18 g/kg/d, 2-3: 0.09 g/kg/d, gavage) was 0.85 ± 0.11. For the same compound, the “Inflammatory factor content in lung tissue IL-6” value [3, 4] was 149.98 ± 29.37 pg/mL, the “Inflammatory factor content in lung tissue IL-10” value [3, 4] was 52.54 ± 29.40 pg/mL and the “Inflammatory factor content in lung tissue INF-γ” value [3, 4] was 2.77 ± 3.48 pg/mL. The “Inflammatory factor content in lung tissue TNF-α” value [3, 4] was 38.33 ± 9.62 pg/mL.

In the case of Interferon α2b, the “Viral load (lung tissue)” value (HCoV-229E nucleic acid; [6]) is reported as 63758.38 ± 17530.19, the “Factor content in serum GAS” value (GAS, MTL in mouse serum; [6]) is reported as 8.94 ± 1.07 pg/mL and the “Factor content in serum MTL” value (GAS, MTL in mouse serum; [6]) is reported as 115.43 ± 7.90 pg/mL. The “CD4+/CD8+ (peripheral blood)” value [1, 6] was 1.92 ± 0.63, the “Percentage of immune cells in peripheral blood CD4+T cell” value [1, 6] was 35.17 ± 4.24% and the “Percentage of immune cells in peripheral blood CD8+T cell” value [1, 6] was 19.68 ± 4.53 %. The “Percentage of immune cells in peripheral blood B cell” value ([1]; interferon α2b, 20 min) was 6.40 ± 0.98%, the “Inhibition rate % (of lung index)” value ([2]; interferon α2b 3 million IU, 20 min) was 40.38% and the “Lung index (Lung weight/100 g body weight)” value ([2]; interferon α2b 3 million IU, 20 min, atomization inhalation) was 0.79 ± 0.11. The “Inflammatory factor content in lung tissue TNF-α” value [3, 6] was 33.86 ± 8.72 pg/mL, the “Inflammatory factor content in lung tissue IL-6” value ([3]; interferon α2b, 20 min) was 199.07 ± 38.37 pg/mL and the “Inflammatory factor content in lung tissue IL-10” value ([3]; interferon α2b, 20 min) was 102.25 ± 58.14 pg/mL. The “Inflammatory factor content in lung tissue INF-γ” value ([3]; interferon α2b, 20 min) was 4.20 ± 3.39 pg/mL.
